How the values were obtained:
Format in all cases: cell-based
human TLR9 = biological target: T1, human TLR9 (Homo sapiens, UniProt Q9NR96); assay: TLR9 inhibition reporter assay (HEK-Blue cells, SEAP reporter, ODN2006 stimulation); details: HEK-Blue cells overexpressing human TLR9, SEAP reporter, ODN2006 5 nM
T1 construct: host or cells: HEK-Blue cells (HEK293-derived reporter line)
T1 sequence (Q9NR96 26-1032): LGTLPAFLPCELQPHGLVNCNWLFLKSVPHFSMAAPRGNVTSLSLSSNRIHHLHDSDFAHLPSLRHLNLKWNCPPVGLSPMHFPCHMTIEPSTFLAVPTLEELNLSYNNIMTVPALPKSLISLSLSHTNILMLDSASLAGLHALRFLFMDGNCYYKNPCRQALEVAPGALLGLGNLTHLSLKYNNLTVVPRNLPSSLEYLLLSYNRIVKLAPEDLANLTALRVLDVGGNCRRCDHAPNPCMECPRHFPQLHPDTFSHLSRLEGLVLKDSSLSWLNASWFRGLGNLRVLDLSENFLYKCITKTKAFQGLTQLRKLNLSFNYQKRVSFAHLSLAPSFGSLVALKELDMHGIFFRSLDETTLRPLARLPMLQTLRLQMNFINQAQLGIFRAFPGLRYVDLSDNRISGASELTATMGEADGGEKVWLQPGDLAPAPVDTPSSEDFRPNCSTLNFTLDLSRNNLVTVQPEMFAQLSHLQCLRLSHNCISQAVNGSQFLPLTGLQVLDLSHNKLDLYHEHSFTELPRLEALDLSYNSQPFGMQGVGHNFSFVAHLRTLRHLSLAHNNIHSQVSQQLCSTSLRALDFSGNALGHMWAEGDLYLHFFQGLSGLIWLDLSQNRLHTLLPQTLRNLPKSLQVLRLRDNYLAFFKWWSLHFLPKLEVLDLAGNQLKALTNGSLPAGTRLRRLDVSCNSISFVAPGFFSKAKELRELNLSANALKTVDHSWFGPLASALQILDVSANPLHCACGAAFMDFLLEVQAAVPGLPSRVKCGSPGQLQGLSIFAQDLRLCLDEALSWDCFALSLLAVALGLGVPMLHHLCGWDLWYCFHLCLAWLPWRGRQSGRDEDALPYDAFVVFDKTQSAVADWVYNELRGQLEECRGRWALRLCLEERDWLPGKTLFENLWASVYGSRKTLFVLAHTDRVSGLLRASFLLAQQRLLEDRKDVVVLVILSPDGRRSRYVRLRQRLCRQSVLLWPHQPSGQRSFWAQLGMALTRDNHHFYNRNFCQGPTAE
How it was run: (§1)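 Percent inhibition of agonist-induced SEAP secretion in HEK-Blue cells after 22 h at 37 °C. Stimuli: 7.5 μM gardiquimod, 15.9 μM R848, 5 nM ODN2006 for TLR7, TLR8 and TLR9, added after 30 min compound exposure over a 0.05 nM–50 μM range.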

human TLR8 = biological target: T2, human TLR8 (Homo sapiens, UniProt Q9NR97); assay: TLR8 inhibition reporter assay (HEK-Blue cells, SEAP reporter, R848 stimulation); details: HEK-Blue cells overexpressing human TLR8, SEAP reporter, R848 15.9 μM
T2 construct: host or cells: HEK-Blue cells (HEK293-derived reporter line)
T2 sequence (Q9NR97 27-1041): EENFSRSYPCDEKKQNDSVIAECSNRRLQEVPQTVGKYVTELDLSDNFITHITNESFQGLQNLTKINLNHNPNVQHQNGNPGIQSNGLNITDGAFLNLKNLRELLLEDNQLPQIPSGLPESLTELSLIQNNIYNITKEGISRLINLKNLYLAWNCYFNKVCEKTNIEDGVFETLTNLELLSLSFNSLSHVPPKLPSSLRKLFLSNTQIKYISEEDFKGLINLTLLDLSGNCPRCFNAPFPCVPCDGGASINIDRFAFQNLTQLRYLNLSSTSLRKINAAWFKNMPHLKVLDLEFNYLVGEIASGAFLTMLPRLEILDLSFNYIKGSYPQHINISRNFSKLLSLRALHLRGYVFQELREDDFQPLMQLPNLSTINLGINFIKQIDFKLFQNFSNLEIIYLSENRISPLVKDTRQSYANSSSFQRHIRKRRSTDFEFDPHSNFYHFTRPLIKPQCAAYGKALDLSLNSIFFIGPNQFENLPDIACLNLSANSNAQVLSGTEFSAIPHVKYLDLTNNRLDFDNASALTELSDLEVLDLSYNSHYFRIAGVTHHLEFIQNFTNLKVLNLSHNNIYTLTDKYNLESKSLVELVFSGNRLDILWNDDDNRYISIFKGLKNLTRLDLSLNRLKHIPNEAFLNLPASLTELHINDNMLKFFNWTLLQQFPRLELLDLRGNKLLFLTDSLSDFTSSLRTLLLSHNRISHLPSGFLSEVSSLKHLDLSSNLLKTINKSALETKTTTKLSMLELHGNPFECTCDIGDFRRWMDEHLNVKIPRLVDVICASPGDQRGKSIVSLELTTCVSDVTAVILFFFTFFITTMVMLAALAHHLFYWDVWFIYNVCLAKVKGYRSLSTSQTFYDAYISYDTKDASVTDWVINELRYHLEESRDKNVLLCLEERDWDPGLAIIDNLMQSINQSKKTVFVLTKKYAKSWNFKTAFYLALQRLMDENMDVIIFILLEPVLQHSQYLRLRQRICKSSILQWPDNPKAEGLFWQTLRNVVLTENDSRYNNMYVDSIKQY
How it was run: as §1

human TLR7 = biological target: T3, human TLR7 (Homo sapiens, UniProt Q9NYK1); assay: TLR7 inhibition reporter assay (HEK-Blue cells, SEAP reporter, gardiquimod stimulation); details: HEK-Blue cells overexpressing human TLR7, SEAP reporter, gardiquimod 7.5 μM
T3 construct: host or cells: HEK-Blue cells (HEK293-derived reporter line)
T3 sequence (Q9NYK1 27-1049): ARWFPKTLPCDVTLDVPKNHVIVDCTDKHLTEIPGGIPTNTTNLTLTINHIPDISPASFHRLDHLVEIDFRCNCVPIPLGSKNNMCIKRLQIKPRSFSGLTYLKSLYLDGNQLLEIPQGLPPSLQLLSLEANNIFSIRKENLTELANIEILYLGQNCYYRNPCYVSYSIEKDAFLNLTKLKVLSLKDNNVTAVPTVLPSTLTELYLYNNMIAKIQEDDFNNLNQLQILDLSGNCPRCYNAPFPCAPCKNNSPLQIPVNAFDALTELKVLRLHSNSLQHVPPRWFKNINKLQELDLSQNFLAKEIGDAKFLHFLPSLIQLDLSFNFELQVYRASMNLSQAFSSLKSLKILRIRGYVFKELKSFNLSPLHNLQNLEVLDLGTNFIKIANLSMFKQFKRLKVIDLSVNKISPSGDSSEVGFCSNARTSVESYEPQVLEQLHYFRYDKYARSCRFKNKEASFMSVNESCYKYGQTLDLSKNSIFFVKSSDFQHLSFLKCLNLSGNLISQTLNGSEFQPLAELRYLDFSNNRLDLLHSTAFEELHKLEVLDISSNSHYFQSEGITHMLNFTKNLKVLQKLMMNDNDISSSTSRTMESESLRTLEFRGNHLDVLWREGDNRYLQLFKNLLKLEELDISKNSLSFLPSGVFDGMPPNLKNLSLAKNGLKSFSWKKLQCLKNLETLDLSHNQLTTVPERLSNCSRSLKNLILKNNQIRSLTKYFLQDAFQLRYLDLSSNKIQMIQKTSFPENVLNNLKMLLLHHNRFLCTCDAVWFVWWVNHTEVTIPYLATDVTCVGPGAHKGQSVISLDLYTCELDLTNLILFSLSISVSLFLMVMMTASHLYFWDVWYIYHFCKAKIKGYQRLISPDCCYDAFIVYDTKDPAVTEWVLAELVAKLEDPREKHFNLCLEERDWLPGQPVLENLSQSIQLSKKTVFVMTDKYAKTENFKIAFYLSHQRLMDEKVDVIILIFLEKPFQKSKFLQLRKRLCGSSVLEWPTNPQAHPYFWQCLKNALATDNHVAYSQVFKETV
How it was run: as §1

| IC50 (human TLR9) [nM] | IC50 (human TLR8) [nM] | IC50 (human TLR7) [nM] | Structure (SMILES) |
| --- | --- | --- | --- |
| 1000 to 50000 | 100 to 1000 | < 100 | CC(C)c1c(-c2ccn3nncc3c2)[nH]c2ccc(C3CCN(C(=O)CN(C)C)CC3)cc12 [Example 465, 1-(4-(2-([1,2,3]triazolo [1,5-a]pyridin-5-yl)-3-isopropyl-1H-indol-5-yl)piperidin-1-yl)-2-(dimethylamino)ethan-1-one] |
| 100 to 1000 | 100 to 1000 | 100 to 1000 | COc1cc(-c2[nH]c3ccc(C4CCN(CC(=O)N(C)C)CC4)cc3c2C(C)C)cc2nc(C)cn12 [Example 334, 2-(4-(3-isopropyl-2-(5-methoxy-2-methylimidazo[1,2-a]pyridin-7-yl)-1H-indol-5-yl)piperidin-1-yl)-N,N-dimethylacetamide] |
| 1000 to 50000 | < 100 | < 100 | Cc1cc(-c2[nH]c3ccc(C4CCN(CC(N)=O)CC4)cc3c2C(C)C)cn2nnnc12 [Example 311, 2-(4-(3-isopropyl-2-(8-methyltetrazolo[1,5-a]pyridin-6-yl)-1H-indol-5-yl)piperidin-1-yl) acetamide] |
| 1000 to 50000 | < 100 | < 100 | Cc1cc(-c2[nH]c3ccc(C4CCN(C5CCOCC5)CC4)cc3c2C(C)C)cn2nnnc12 [Example 698, 6-(3-isopropyl-5-(1-(tetrahydro-2H-pyran-4-yl)piperidin-4-yl)-1H-indol-2-yl)-8-methyltetrazolo[1,5-a]pyridine] |
| 1000 to 50000 | 100 to 1000 | < 100 | CCc1c(C)c(-c2[nH]c3ccc(C4CCN(CC(=O)NC)CC4)cc3c2C(C)C)cn2ccnc12 [Example 418, 2-(4-(2-(8-ethyl-7-methylimidazo[1,2-a]pyridin-6-yl)-3-isopropyl-1H-indol-5-yl)piperidin-1-yl)-N-methylacetamide] |
| 1000 to 50000 | 1000 to 50000 | 1000 to 50000 | Cc1c(-c2ccnc3[nH]cc(N)c23)[nH]c2ccc(C3CCNCC3)cc12 [Example 211, 4-(3-methyl-5-(piperidin-4-yl)-1H-indol-2-yl)-1H-pyrrolo[2,3-b]pyridin-3-amine] |
| 1000 to 50000 | 100 to 1000 | < 100 | COc1cc(-c2[nH]c3ccc(C4CCN(CC(=O)N(C)C)CC4)cc3c2C(C)C)c2ccccc2n1 [Example 340, 2-(4-(3-isopropyl-2-(2-5 methoxyquinolin-4-yl)-1H-indol-5-yl)piperidin-1-yl)-N,N-dimethylacetamide] |
| 1000 to 50000 | < 100 | < 100 | Cc1c(-c2[nH]c3ccc(C4CCN(C5COC5)CC4)cc3c2C(C)C)cn2nnnc2c1C [Example 739, 6-(3-isopropyl-5-(1-(oxetan-3-yl)piperidin-4-yl)-1H-indol-2-yl)-7,8-dimethyltetrazolo[1,5-a]pyridine] |
| 1000 to 50000 | < 100 | < 100 | COc1cc(-c2[nH]c3ccc(C4CCNCC4)cc3c2C(C)C)cc2ncnn12 [Example 158, 7-(3-isopropyl-5-(piperidin-4-yl)-1H-indol-2-yl)-5-methoxy-[1,2,4]triazolo[1,5-a]pyridine] |
| 1000 to 50000 | < 100 | < 100 | Cc1cc(-c2[nH]c3ccc(C4CCN(Cc5ncn(C)n5)CC4)cc3c2C(C)C)cc2cnnn12 [Example 890, 5-(3-isopropyl-5-(1-((1-methyl-1H-1,2,4-triazol-3-yl)methyl)piperidin-4-yl)-1H-indol-2-yl)-7-methyl-[1,2,3]triazolo[1,5-a]pyridine] |
| 100 to 1000 | < 100 | < 100 | CC(C)c1c(-c2cc(C(F)(F)F)c3nccn3c2)[nH]c2ccc(C3CCNCC3)cc12 [Example 136, 6-(3-isopropyl-5-(piperidin-4-yl)-1H-indol-2-yl)-8-(trifluoromethyl)imidazo[1,2-a]pyridine] |
| 1000 to 50000 | < 100 | < 100 | COc1cc(-c2[nH]c3ccc(C4CCN(C(=O)CN(C)C)CC4)cc3c2C(C)C)cc2nc(C)nn12 [Example 496, 2-(dimethylamino)-1-(4-(3-isopropyl-2-(5-methoxy-2-methyl-[1,2,4]triazolo[1,5-a]pyridin-7-yl)-1H-indol-5-yl)piperidin-1-yl)ethan-1-one] |
| 1000 to 50000 | < 100 | 100 to 1000 | CC(C)c1c(-c2cccn3ncnc23)[nH]c2ccc(C3CCN(CC(C)(C)O)CC3)cc12 [Example 760, 1-(4-(2-([1,2,4]triazolo[1,5-a]pyridin-8-yl)-3-isopropyl-1H-indol-5-yl)piperidin-1-yl)-2-methylpropan-2-ol] |

| Structure (SMILES) | IC50 (human TLR9) [nM] | IC50 (human TLR8) [nM] | IC50 (human TLR7) [nM] |
| --- | --- | --- | --- |
| Cc1cc(-c2[nH]c3ccc(C4CCN(C(=O)CN5[C@@H]6CC[C@H]5COC6)CC4)cc3c2C(C)C)cn2nnnc12 [Example 479, 2-((1R,5S)-3-oxa-8-azabicyclo[3.2.1]octan-8-yl)-1-(4-(3-isopropyl-2-(8-methyltetrazolo[1,5-a]pyridin-6-yl)-1H-indol-5-yl)piperidin-1-yl)ethan-1-one] | 1000 to 50000 | < 100 | < 100 |

Source: patent publication US11739098B2 (BRISTOL-MYERS SQUIBB COMPANY, priority 2017, dated 2023)
